Test results published in patent publication US20060099712A1, “Correlation of anti-cancer activity of dyes with redox potentials” (Eastman Kodak Company, priority 2004, published 2006).
Converted amounts (≈) assume the structure as drawn.

Experiments:
[1] = Electrochemical oxidation potential measurement, SHACV / fast scan CV; type: physicochemical; conditions: Table XIX; oxidation potential vs. Ag/AgCl; in V (unit assumed)
From the text: If a published reduction potential is not available, suitable techniques for measuring reduction potential are available. Accurate electrochemical oxidation and reduction potentials for these organic dyes can be measured by the techniques of fast scan cyclic voltommetry (CV) or second harmonic ac voltommetry (SHACV). SHACV measurements are made as described by Lenhard in the Journal of Imaging Science volume 30, 1986 pp 27-35 using a commercially available (Princeton Applied Research Corp.) potentiostat in conjunction with voltage programmer, a conventional lock-in amplifier, and a low-distortion oscillator. The SHACV method utilizes an ac voltage waveform (of a frequency greater than or equal to 400 hz) that is superimposed on a DC potential ramp. On the other hand, the measurement of the oxidation or reduction potential by the CV method utilizes a (high frequency) triangular voltage waveform. The general procedures for measuring potentials by this method have been described by Wightman in Analytical Chemistry, 1984, vol. 56, pp524 and Journal of Physical Chemistry, 1984, vol. 88, pp3915. The specific application of this technique to the measurement of cyanine dye potentials has been reported by Nomura and Okazaki, Chemistry Letters, 1990, pp2231-2234. Commercial instrumentation especially designed for fast scan (i.e., high frequency) CV is available. It is noteworthy that because of the complicated nature of many of the cyanine dyes, electrochemical reactions, conventional slow scan cyclic voltommetry or polarography methods (as described by R. Large in Photographic Sensitivity, R. Cox, ed., Academic Press, New York, 1973, pp 241-263) provide only approximate values for oxidation and reduction potentials. Errors as large as 0.4 V from the true potential can be obtained by using slow scan CV or electrochemical methods.
The procedure for measuring the oxidation or reduction potential by the SHACV or fast scan CV method utilizes solutions of acetonitrile (or similar nonaqueous solvent) with added tetrabutylammonium tetrafluoroborate TBABF4 at a concentration of 0.1 M and ca. 5×10^−4 M of the cyanine, oxonol, or merocyanine dye. For measurement of the reduction potential the solution must be deaerated with argon prior to examination. The preferred working electrode is a Pt disk (ca. 0.02 cm^2) that is polished with 1 μm diamond paste, rinsed with water, and dried before each experiment. The reference electrode is a NaCl saturated calomel electrode. The cell and reference electrodes are maintained at 22 C. A value of 40 mV is added to the measured potentials to convert the number to that corresponding to an Ag/AgCl reference electrode. If a solvent other than acetonitrile is used then the measured potential must be referenced to a standard organic redox system such as ferrocene and corrected accordingly.
The procedure for measuring the oxidation or reduction potential by the SHACV method utilizes solutions of acetonitrile (or similar nonaqueous solvent) with added tetrabutylammonium tetrafluoroborate TBABF4 at a concentration of 0.1 M and ca. 5×10^−4 M of the cyanine, oxonol, or merocyanine dye. […] A value of 40 mV is added to the measured potentials to convert the number to that corresponding to an Ag/AgCl reference electrode. If a solvent other than acetonitrile is used then the measured potential must be referenced to a standard organic redox system such as ferrocene and corrected accordingly.

[2] = test system: MCF-7 Human Breast Carcinoma; assay: Initial in vitro screening, breast carcinoma cells; type: cell-based; conditions: for Selectivity: IC50 CV-1 / IC50 cell line 3 (breast carcinoma); for IC50: MCF7, read-out: IC50 (concentration at which 50% of the cells of the culture are killed); for IC50 / IC50 (concentration at which 50% of the cells of the culture are killed): cell line 3, MCF-7 human breast carcinoma, unit from method
From the text: Other publications have shown that some cyanine dyes show anti-cancer activity. See I. Minami, Y. Kozai, H. Nomura and T. Tashiro, Chem. Phar. Bull. 30:3106 (1982); W. M. Anderson, D. L. Delinick, L. Benninger, J. M. Wood, S. T. Smiley and L. B. Chen, Biochemical Pharmacology, 45:691 (1993). […] (See L. G. S. Brooker, L. A. Sweet, Science, 105, (1947) and I. Minami, Y. Kozai, H. Nomura, T. Tashiro, Chem. Pharm. Bull., 30,3106 (1982) on chemotherapeutic investigations of cyanine dyes.) Table I lists initial in vitro screening results in various cell lines and a comparison with Adriamycin, which is a widely used chemotherapeutic agent.
Description of Cell Line • 1. CV-1 Normal Monkey Kidney Epithelial (control) • 2. CX-1 Human Colon Carcinoma • 3. Human Breast Carcinoma • 4. Human Pancreatic Carcinoma • 5. Human Bladder Carcinoma • 6. Human Lung Carcinoma • 7. Human Squamous Cell Carcinoma • 8. Human Adrenal Cortex Carcinoma

Row | Eox [1] | SMILES | Selectivity [2] | IC50 [2] [µg/mL] | IC50 (concentration at which 50% of the cells of the culture are killed) [2]
1 | 1.015 | CCN1/C(=C/C=C/c2sc3cc4ccccc4cc3[n+]2CC)Sc2cc3ccccc3cc21 [Dye D-109] |  |  | 
2 |  | COc1cccc2c1C(=O)c1c(O)c3c(c(O)c1C2=O)C[C@@](O)(C(=O)CO)C[C@@H]3O[C@H]1C[C@H](N)[C@H](O)[C@H](C)O1 [Adriamycin, reference compound] | 16 | 0.05 (≈ 0.092 µM) | 
3 | 0.902 | CCN1/C(=C/C=C/c2sc3ccccc3[n+]2CC)Sc2ccccc21.[I-] [Dye D-101] | 13.3 |  | 0.03 µg/mL
4 |  | CCN1C(=CC=Cc2sc3cc4ccccc4cc3[n+]2CC)Sc2cc3ccccc3cc21 [AC-2] | >60 |  | <.005 µg/mL
5 | 1.015 | CCN1/C(=C/C=C/c2sc3cc4ccccc4cc3[n+]2CC)Sc2cc3ccccc3cc21 [Dye D-160] |  | < 0.005 | 
6 | 1.145 | CCN1C(=CC=Cc2sc3cc4ccccc4nc3[n+]2CC)Sc2cc3ccccc3nc21 [Dye D-150] | 100 | 0.03 | 

Row | SMILES | Eox [1] | Selectivity [2] | IC50 [2] [µg/mL] | IC50 (concentration at which 50% of the cells of the culture are killed) [2]
7 | CCN1/C(=C\C=C\C2=[N+](CC)c3ccccc3C2(C)C)C(C)(C)c2ccccc21 [Dye D-103] | 1.088 |  |  | 
